Data: US7183252B2, “Indole peptidomimetics as thrombin receptor antagonists” (Ortho-McNeil Pharmaceutical, Inc., priority 1999, dated 2007)
Read-outs that look alike come from different tables or passages of the source.

Key:
[1] = system: gel-filtered platelets; experiment: In vitro inhibition of thrombin-induced gel-filtered platelet aggregation; format: cell-based; settings: human gel-filtered platelets, agonist thrombin 50 μL of 1 unit/mL, read-out: Thrmb IC50 (Thrombin-induced aggregation of gel-filtered platelets)
Procedure: In Vitro Inhibition of Thrombin-Induced Gel-Filtered Platelet Aggregation Assay
The percentage of platelet aggregation is calculated as an increase in light transmission of compound-treated platelet concentrate vs. control-treated platelet concentrate. Human blood is obtained from drug free, normal donors in tubes containing 0.13M sodium citrate. Platelet rich plasma (PRP) is collected by centrifugation of whole blood at 200×g for 10 min at 25° C. The PRP (5 mL) is gel filtered through Sepharose 2B (bed volume 50 mL), and the platelet count is adjusted to 2×10^7 platelets per sample. The following constituents are added to a siliconized cuvette: concentrated platelet filtrate and Tyrode's buffer (0.14M NaCl, 0.0027M KCl, 0.012M NaHCO3, 0.76 mM Na2HPO4, 0.0055M glucose, 2 mg/mL BSA and 5.0 mM HEPES @ pH 7.4) in an amount equal to 350 μL 50 μL of 20 mM calcium and 50 μL of the test compound. Aggregation is monitored in a BIODATA aggregometer for the 3 min following the addition of agonist (thrombin 50 μL of 1 unit/mL).
(§1) Table 7 contains IC50 values (μM) of the compounds in a thrombin receptor binding assay, and IC50 values (μM) against platelet aggregation stimulated by thrombin.

[2] = target: T1, thrombin receptor (PAR-1) (Homo sapiens, UniProt P25116); experiment: In vitro thrombin receptor binding assay (CHRF membranes); settings: tritiated 721-40 radioligand, read-out: Bndg IC50 (Thrombin receptor binding)
T1 construct: CHRF membranes (Jones, Biochim. Biophys. Acta 1992, 1136, 272) are thawed from −70° C; endogenous in cells; host or cells: CHRF cell membranes
T1 sequence (P25116 22-425): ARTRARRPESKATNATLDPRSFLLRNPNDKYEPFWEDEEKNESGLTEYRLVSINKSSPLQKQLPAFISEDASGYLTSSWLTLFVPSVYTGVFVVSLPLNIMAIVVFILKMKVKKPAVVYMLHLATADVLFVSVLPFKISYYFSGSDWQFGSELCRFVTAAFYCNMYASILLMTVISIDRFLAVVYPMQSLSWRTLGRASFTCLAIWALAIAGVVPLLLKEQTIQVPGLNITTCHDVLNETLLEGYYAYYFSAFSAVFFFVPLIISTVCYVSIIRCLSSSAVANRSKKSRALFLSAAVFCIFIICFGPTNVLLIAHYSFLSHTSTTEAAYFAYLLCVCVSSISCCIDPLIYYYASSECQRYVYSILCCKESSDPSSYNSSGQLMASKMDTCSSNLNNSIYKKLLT
Procedure: In Vitro Thrombin Receptor Binding Assay
CHRF membranes (Jones, Biochim. Biophys. Acta 1992, 1136, 272) are thawed from −70° C., centrifuged at maximum speed for 5 min, washed twice with binding buffer (50 mM HEPES containing 5 mM MgCl2 and 0.1% BSA), and re-suspended in binding buffer (25 μg/[…]). 100 μL of membranes are added to the 24-Wallac plates and delivered to the Tomtech apparatus. In a typical experiment, 6 μL of samples (from a 125 μg/mL intermediary plate, 20% DMSO) and 44 μL buffer are delivered to the plates (final conc. of compounds is 3.7 μg/mL, 0.6% DMSO). Similarly, 6 μL 20% DMSO and 44 μL buffer are delivered to both column 1 (NSB) and column 12 (TB). 10 μL Ser-pFPhe-Har-Leu-Har-Lys-Tyr-NH2 (721–40; 500 μM in deionized water) is added to column 1. 50 μL tritiated 721–40 (specific activity 46 Ci/mmol) is added to all the wells. The plates are mixed well for 20 seconds, incubated for 30 min,and then harvested with 10 mM HEPES/138 mM NaCl using the Skatron harvester. The filters (GF/C Brandel FPXLR 296) are presoaked 3 h in 0.5% polyethylenimine in HEPES/0.1M N-acetylglucosamine) are set in saran wrap and dried for 3 min in the microwave, and placed in sample bags (Wallac 1450-432). 4.5 mL scintillation fluid (Wallac, Betaplate Scint 1205-440) is added. The bags are sealed, placed in filter cassettes (Wallac 1450-104), and analyzed on the microbeta counter.
as §1

Compound	IC50 ([1]; Platelet)	IC50 [2]	IC50 [1]
COc1ccc(C[C@H](NC(=O)Nc2ccc3c(CNCCCN4CCCC4)cn(Cc4ccc(F)cc4)c3c2)C(=O)N[C@@H](CCCNC(=N)N)C(=O)NCc2ccccc2)cc1 [Compound 33]	54700 nM	5400 nM	–
COc1ccc(C[C@H](NC(=O)Nc2ccc3c(CN4CCCCC4)cn(Cc4ccc(F)cc4)c3c2)C(=O)N[C@@H](CCCNC(=N)N)C(=O)NCC2CCCCC2)cc1 [Compound 8]	8000 nM	2300 nM	–
Cc1ccccc1Cn1cc(CN2CCCC2)c2ccc(NC(=O)N[C@@H](Cc3ccc(F)c(F)c3)C(=O)N[C@@H](CCCNC(=N)N)C(=O)NCCc3ccccc3)cc21 [Compound 57]	1800 nM	300 nM	–
Cc1coc(CNC(=O)[C@H](CCN)NC(=O)[C@H](Cc2ccc(F)c(F)c2)NC(=O)Nc2ccc3c(CN4CCCC4)cn(Cc4c(Cl)cccc4Cl)c3c2)c1 [Compound 159]	–	700 nM	430 nM
N=C(N)NCCC[C@H](NC(=O)[C@H](Cc1cccs1)NC(=O)Nc1ccc2c(CN3CCCC3)cn(Cc3ccc(F)cc3)c2c1)C(=O)NCc1ccccc1 [Compound 28]	13800 nM	4100 nM	–
C[C@@H](CNC(=O)[C@H](CCCNC(=N)N)NC(=O)[C@H](Cc1ccc(F)c(F)c1)NC(=O)Nc1ccc2c(CN3CCCC3)cn(Cc3c(Cl)cccc3Cl)c2c1)c1ccccc1 [Compound 83]	430 nM	680 nM	–
COc1ccccc1CCNC(=O)[C@H](CCCNC(=N)N)NC(=O)[C@H](Cc1ccc(F)c(F)c1)NC(=O)Nc1ccc2c(CN3CCCC3)cn(Cc3ccccc3C)c2c1 [Compound 65]	1000 nM	220 nM	–
NCC[C@H](NC(=O)[C@H](Cc1ccc(F)c(F)c1)NC(=O)Nc1ccc2c(CN3CCCC3)cn(Cc3c(Cl)cccc3Cl)c2c1)C(=O)NCc1ccccc1 [Compound 102, Benzenepropanamide, N-[(1S)-3-amino-1-[[(phenylmethyl)amino]carbonyl]propyl]-α-[[[[1-[(2,6-dichlorophenyl)methyl]-3-(1-pyrrolidinylmethyl)-1H-indol-6-yl]amino]carbonyl]amino]-3,4-difluoro-, (αS)-]	160 nM	500 nM	–
CC(=N)NCCC[C@H](NC(=O)[C@H](Cc1ccc(F)c(F)c1)NC(=O)Nc1ccc2c(CN3CCCC3)cn(Cc3c(Cl)cccc3Cl)c2c1)C(=O)NCc1ccccc1 [Compound 95]	410 nM	370 nM	–
NCC[C@H](NC(=O)[C@H](Cc1ccc(F)c(F)c1)NC(=O)Nc1ccc2c(CN3CCCC3)cn(Cc3c(Cl)cccc3Cl)c2c1)C(=O)NCCc1c[nH]cn1 [Compound 142]	1900 nM	480 nM	–
C=CCOc1ccc(C[C@H](NC(=O)Nc2ccc3c(CN4CCCC4)cn(Cc4cccc(C)c4)c3c2)C(=O)N[C@@H](CCCNC(=N)N)C(=O)NCc2ccccc2)cc1 [Compound 34]	16300 nM	9700 nM	–
COC[C@H]1CCCN1Cc1cn(Cc2cc(Cl)nc(Cl)c2)c2cc(NC(=O)N[C@@H](Cc3cccc(F)c3)C(=O)N[C@@H](CCCNC(=N)N)C(=O)NCc3ccccc3)ccc12 [Compound 91]	22400 nM	4000 nM	–
N=C(N)NCCC[C@H](NC(=O)[C@H](Cc1ccc(F)c(F)c1)NC(=O)Nc1ccc2c(CN3CCCC3)cn(CC3CCCCC3)c2c1)C(=O)NCc1ccccc1 [Compound 74]	2900 nM	560 nM	–
NC[C@H](NC(=O)[C@H](Cc1ccc(F)c(F)c1)NC(=O)Nc1ccc2c(CN3CCCC3)cn(Cc3c(Cl)cccc3Cl)c2c1)C(=O)NCc1ccccc1 [Compound 101]	410 nM	920 nM	–
NCCC(NC(=O)C(Cc1ccc(F)c(F)c1)NC(=O)Nc1ccc2c(CN3CCCC3)cn(Cc3c(Cl)cccc3Cl)c2c1)C(=O)NC(CO)c1ccccc1 (stereo not shown) [Compound 161]	–	–	520 nM
COC(=O)C(NC(=O)C(CCN)NC(=O)C(Cc1ccc(F)c(F)c1)NC(=O)Nc1ccc2c(CN3CCCC3)cn(Cc3c(Cl)cccc3Cl)c2c1)c1ccccc1 (stereo not shown) [Compound 160]	–	–	600 nM
N=C(N)NCCC[C@H](NC(=O)[C@H](CC1CCCCC1)NC(=O)Nc1ccc2c(CN3CCCC3)cn(Cc3ccc(F)cc3)c2c1)C(=O)NCc1ccccc1 [Compound 25]	–	–	37100 nM
